A short description of assay [1]: Masking effect on Reb M, trained panel. Details: species or system human. Particulars: base Reb M 200 ppm in water, test sample 0.5 ppm; for Masking Intensity: panel average, scale 0-5. The source says:
(§1) Preparation of Test Samples: […], oroxylin A-7 glucouronide, wogonoside, baicalein, oroxylin A and wogonin were purchased commercially. S. baicalensis extract (“Extract”) and cabohydrase-treated S. baicalensis extract (“Treated Extract”) were obtained as above in Example 1.
(§2) Subsequently, all compounds and extracts were applied to different bases for evaluating their off-taste masking functions.
(§3) Testing Procedure: The masking effects on the off-tastes (bitterness, sourness, astringency, lingering and drying aftertaste, etc.) associated with various food components was evaluated by a group of 16 trained panelist. Each provided a rank of masking intensity using the intensity scales of 0 to 5, where 0 represents “no masking effect,” 1 represents “minimal masking intensity” and 5 represents “the most masking intensity.” The average of the reported making intensity is presented in the following examples.
A base solution of Reb M was prepared in water (200 ppm). […] The flavor profile of the Reb M solutions with compounds or extracts were further evaluated and is reported in the following: […]

The nature of assay [2]: Masking effect on Reb A, trained panel. Details: species or system human. As to conditions: base Reb A 200 ppm in water; for Masking Intensity: panel average, scale 0-5.
Text: as §1, §2, §3
A base solution of Reb A was prepared in water (200 ppm). […] The flavor profile of the Reb A solutions with compounds or extracts were further evaluated and is reported in the following: […]

Assay [3] in a line: Masking effect on Acesulfame-K, trained panel. More on the design: species or system human. As to conditions: base Acesulfame-K 300 ppm in water; for Masking Intensity: panel average, scale 0-5.
Text: as §1, §2, §3
A base solution of Acesulfame-K was prepared in water (300 ppm). […] The flavor profile of the Acesulfame-K solutions with compounds or extracts were further evaluated and is reported in the following: […]

Assay [4] is described as follows: Masking effect on benzoic acid, trained panel. More on the design: species or system human. As to conditions: base benzoic acid 250 ppm in water; for Masking Intensity: panel average, scale 0-5.
Text: as §1, §2, §3
A base solution of benzoic acid was prepared in water (250 ppm). […] The flavor profile of the benzoic acid solutions with compounds or extracts was further evaluated and is reported in the following: […]

The nature of assay [5]: Masking effect on pea protein, trained panel. Particulars: base TRUPRO pea protein 5% in water, test sample 0.5 ppm; for Masking Intensity: panel average, scale 0-5. Details: species or system human.
Text: as §1, §2, §3
A base solution of TRUPRO® pea protein (Solae LLC) was prepared in water (5%). […] The flavor profile of the pea protein solutions with compounds or extracts were further evaluated and is reported in the following: […]

Assay [6] in a line: Taste modulating activity of the individual compounds. As to conditions: for taste modulation effect: flavone aglycones versus corresponding flavone glycosides; for taste modulating activity: individual compounds, Example 1. How it is done:
With bio-transformation, most baicalin was converted to baicalein; oroxylin A glucuronide was converted to oroxylin A; and wogonoside was converted to wogonin. The activity of the individual compounds was also analyzed for taste modulating activity.

Assay [7] in a line: Masking effect on sorbic acid, trained panel. More on the design: species or system human. As to conditions: base sorbic acid 150 ppm in water, test sample 0.5 ppm; for Masking Intensity: panel average, scale 0-5.
Text: as §1, §2, §3
A base solution of sorbic acid was prepared in water (150 ppm). […] The flavor profile of the sorbic acid solutions with compounds or extracts were further evaluated and is reported in the following: […]

The nature of assay [8]: Masking effect on citric acid, trained panel. As to conditions: base citric acid 300 ppm in water, test sample 0.5 ppm; for Masking Intensity: panel average, scale 0-5. More on the design: species or system human.
Text: as §1, §2, §3
A base solution of citric acid was prepared in water (300 ppm). […] The flavor profile of the citric acid solutions with compounds or extracts were further evaluated and is reported in the following: […]

This note sets out measurements from patent publication US20250241347A1, “COMPOSITIONS AND METHODS FOR TASTE MODULATION” (INTERNATIONAL FLAVORS & FRAGRANCES INC., priority 2019, published 2025).

With `O=C(O)C1OC(Oc2cc3oc(-c4ccccc4)cc(=O)c3c(O)c2O)C(O)C(O)C1O` (stereo not shown) [Baicalin, 5,6-dihydroxy-7-O-glucuronide flavone, reference compound], the “Masking Intensity” value in assay [1], in assay [2] (test sample 0.5 ppm), in assay [3] (test sample 0.5 ppm), in assay [4] (test sample 0.5 ppm), in assay [5] and in assay [7] was 1 throughout. For the same molecule, the “Masking Intensity” value in assay [8] is 1. Further, the taste modulation effect entry in assay [6] is “weak taste modulation effect”. Also, the taste modulating activity entry in assay [6] is “some activity”.

For the molecule `COc1c(O)cc2oc(-c3ccccc3)cc(=O)c2c1O` [Oroxylin A, 5,7-dihydroxy-6-methoxyflavone], the “Flavor Profile” value in assay [1] was “Reduced bitterness and lingering aftertaste,”; in assay [2] (test sample 0.01 ppm), “Slightly reduced astringency, licorice flavor”; in assay [3] (test sample 0.1 ppm) it was “Reduced bitterness and lingering aftertaste”; in assay [3] (test sample 0.5 ppm), “Reduced bitterness and lingering aftertaste,”; in assay [3] (test sample 10 ppm), “Reduced lingering aftertaste, very slight”; in assay [3] (test sample 50 ppm) it was “Reduced lingering aftertaste, noticeable”. The “Flavor Profile” value is “Reduced astringency, sourness, and drying” in assay [4] (test sample 0.5 ppm); “Reduced astringency, sourness, and drying” in assay [4] (test sample 1 ppm); “Reduced astringency, sourness, and drying” in assay [4] (test sample 10 ppm); “Reduced astringency, sourness, and drying” in assay [4] (test sample 50 ppm); “Reduced astringency and bitterness, less” in assay [5]; “Reduced astringency, sourness, and drying” in assay [7]. In addition, in assay [8], the “Flavor Profile” value is listed as “Reduced tart taste, more pleasant”. The “Masking Intensity” value is 5 in assay [1]; 2 in assay [2] (test sample 0.01 ppm); 3 in assay [2] (test sample 0.1 ppm); 5 in assay [2] (test sample 0.5 ppm); 4 in assay [2] (test sample 10 ppm); 2 in assay [2] (test sample 50 ppm). Further, the “Masking Intensity” value in assay [3] (test sample 0.01 ppm) amounted to 1; in assay [3] (test sample 0.1 ppm) it was 3; in assay [3] (test sample 0.5 ppm), 5; in assay [3] (test sample 10 ppm), 4; in assay [3] (test sample 50 ppm), 2; in assay [4] (test sample 0.001 ppm), 0. The “Masking Intensity” value in assay [4] (test sample 0.01 ppm) is 1; in assay [4] (test sample 0.1 ppm), 3; in assay [4] (test sample 0.5 ppm) it was 4; in assay [4] (test sample 1 ppm), 5; in assay [4] (test sample 10 ppm), 4; in assay [4] (test sample 50 ppm) it was 3. In addition, the “Masking Intensity” value is 4 in assay [5], 4 in assay [7] and 5 in assay [8]. For the same molecule, the taste modulating activity entry in assay [6] is “more active”.

With `COc1c(OC2OC(C(=O)O)C(O)C(O)C2O)cc2oc(-c3ccccc3)cc(=O)c2c1O` [Oroxylin A-7 glucuronide, 5,7-dihydroxy-6-methoxyflavone-7-O-β-D-glucuronopyranoside, reference compound], the “Flavor Profile” value in assay [1] is “Slightly reduced bitterness and lingering”; in assay [2] (test sample 0.5 ppm), “Slightly reduced astringency, licorice flavor”; in assay [7], “Slightly reduced drying aftertaste”. Further, the “Masking Intensity” value stood at 2 in assay [1]; 1 in assay [2] (test sample 0.5 ppm); 1 in assay [3] (test sample 0.5 ppm); 1 in assay [4] (test sample 0.5 ppm); 1 in assay [5]; 2 in assay [7]. Further, in assay [8], the “Masking Intensity” value is reported as 1. Moreover, in assay [6], the taste modulation effect entry is “weak taste modulation effect”. Further, the taste modulating activity entry in assay [6] is on record as “some activity”.

Regarding `COc1c(OC2OC(C(=O)O)C(O)C(O)C2O)cc(O)c2c(=O)cc(-c3ccccc3)oc12` [Wogonoside, wogonin 7-O-β-D-glucuronide, reference compound], the “Masking Intensity” value in assay [1] was 1; in assay [2] (test sample 0.5 ppm), 1; in assay [3] (test sample 0.5 ppm), 1; in assay [4] (test sample 0.5 ppm), 1; in assay [5] it was 2; in assay [7] it was 2. In addition, the “Masking Intensity” value in assay [8] worked out at 1. Besides, the “Flavor Profile” value in assay [2] (test sample 0.5 ppm) was “Slightly reduced astringency, licorice flavor”; in assay [5], “Slightly reduced astringency and bitterness,”. In addition, in assay [6], the taste modulation effect result is listed as “weak taste modulation effect”. The taste modulating activity entry in assay [6] is on record as “some activity”.
